From patent EP4664463A1, “COMPUTER-IMPLEMENTED METHOD FOR OLFACTORY PROPERTY PREDICTION” (Givaudan SA, priority 2024, dated 2025) come the findings set out here.

Changes are numbered by the printed parent chain. Where two headings read alike, the source gives them in different places.

One series deals with T1, OR56A4 (Homo sapiens, UniProt Q8NGH8).
T1 construct: expressed in transfected cells; host or cells: HEK293T stably expressing human RTP1S(V227I) and RTP2(L220R)
T1 sequence (Q8NGH8 1-313): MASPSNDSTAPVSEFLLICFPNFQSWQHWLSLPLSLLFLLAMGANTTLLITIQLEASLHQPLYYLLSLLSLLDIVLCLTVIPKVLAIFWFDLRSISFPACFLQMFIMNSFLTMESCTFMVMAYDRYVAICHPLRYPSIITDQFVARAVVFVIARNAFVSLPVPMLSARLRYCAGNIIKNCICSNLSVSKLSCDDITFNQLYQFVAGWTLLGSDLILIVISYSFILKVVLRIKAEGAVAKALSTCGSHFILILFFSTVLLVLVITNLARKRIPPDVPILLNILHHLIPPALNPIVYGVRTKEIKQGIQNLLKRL
The experiment in a line: cell-based. Format: cell-based. The settings on record: wild-type. The text has this: (§1) To create an expression plasmid, an OR coding sequence fused at the end of TM7 to the desired C-terminus sequence was synthesized by a DNA synthesis service provider (BioCat GmbH, Germany) and inserted into pcDNA3.1(+) (Invitrogen, MA, USA) downstream of the CMV promoter sequence (SEQ ID NO: 82) using BamHI and Notl restriction sites. All the synthetic OR nucleotide sequences described below in Examples 1-15 further contained at their N-terminus a nucleotide sequence encoding a signal peptide (mmLucy-FLAG-rho, SeQ ID NOs: 80, 81) and at the C-terminus the bgh terminator sequence (SEQ ID NO: 83). All the OR expression plasmids also contain a Kozak sequence (GCCACC) between the BamHI restriction site and the start codon of the signal peptide. These plasmids thus contain a constitutively expressed OR gene.
Activation of OR56A4 by acids of different chain length was further tested. […] Replacing the wild-type with the C-terminal sequence of the functional OR51 E1 did reduce activity. However, using the optimized sequence form Examples 1-5 led to a strong signal and much lower detection threshold upon addition of all three acids.

The subject of another series is OR2M2. The experiment in a line: Activation of modified OR2M2 by sulfur compounds in presence of copper (luciferase). Format: cell-based, human. Conditions: modified C-terminus. The text has this:
The most pungent odorant in human axillary sweat with an ODT of 1 picogram / L air is 3-methyl-3-sulfanyl-hexanol (also known as 3-methyl-3-mercapto-hexanol) (Natsch et al. identification of Odoriferous Sulfanylalkanols in Human Axilla Secretions and Their Formation through Cleavage of Cysteine Precursors by a C-S Lyase Isolated from Axilla bacteria. […] 2004; 1:1058-1072). So far, no OR has been described which can selectively detect this key odorant leading to undesired axilla odor in human subjects. By screening a library of receptor variants with the C-terminal sequence SEQ ID NO: 86 in presence of copper against a library of 52 sulfur compounds (see example 5), a hitherto orphan receptor, OR2M2, was identified, which is activated by 3-methyl-3-mercapto-hexanol and closely related chemicals, but not by other sulfur odorants (Figure 19).

Another series addresses T2, OR7D4 (Homo sapiens, UniProt Q8NG98, D296E/E302K/G299D).
T2 construct: expressed in transfected cells; host or cells: HEK293T cells stably expressing human RTP1S (V227I) and RTP2 (L220R)
T2 sequence (Q8NG98 with tags, fused parts or gaps D296E/G299D/E302K limits assumed): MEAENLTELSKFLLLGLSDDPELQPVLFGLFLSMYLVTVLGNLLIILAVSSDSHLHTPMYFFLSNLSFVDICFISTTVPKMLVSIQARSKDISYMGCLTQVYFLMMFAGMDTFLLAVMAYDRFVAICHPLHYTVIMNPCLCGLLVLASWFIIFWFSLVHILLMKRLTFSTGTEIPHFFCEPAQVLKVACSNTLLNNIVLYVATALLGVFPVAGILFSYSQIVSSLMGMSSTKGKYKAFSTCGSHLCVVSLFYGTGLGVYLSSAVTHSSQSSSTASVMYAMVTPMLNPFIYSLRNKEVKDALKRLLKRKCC
The experiment in a line: cell-based. Format: cell-based. Conditions: for EC50: read-out: Potency EC50.
From the text: as §1
Similarly, in Figure 7 the dose-response of OR7D4 is shown when tested both with androstenone and the closely related molecule androstenol. […] Thus, a better understanding of the receptive space of OR7D4 is possible based on the improved sensitivity of the assay provided by the modified variant.

Series [1] relates to OR5B12. Kind of series: cell-based. In kind it is cell-based, human.
From the text: as §1

In series [2] the target is T3, OR5B12 (Homo sapiens, UniProt Q96R08).
T3 construct: expressed in transfected cells; host or cells: HEK293T cells stably expressing human RTP1S (V227I) and RTP2 (L220R)
T3 sequence (Q96R08 with tags, fused parts or gaps): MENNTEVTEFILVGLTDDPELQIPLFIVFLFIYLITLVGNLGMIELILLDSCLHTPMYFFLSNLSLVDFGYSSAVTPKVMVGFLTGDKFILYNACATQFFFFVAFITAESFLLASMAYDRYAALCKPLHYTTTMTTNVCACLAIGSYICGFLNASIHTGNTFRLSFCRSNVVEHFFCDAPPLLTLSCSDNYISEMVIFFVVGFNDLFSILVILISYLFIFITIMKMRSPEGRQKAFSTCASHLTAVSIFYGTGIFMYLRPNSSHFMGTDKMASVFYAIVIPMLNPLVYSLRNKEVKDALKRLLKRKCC
Kind of series: cell-based. Format: cell-based. The settings on record: for EC50: changed C-term SEQ ID NO: 86, read-out: Potency EC50; for Detection threshold; concentration for 2-fold induction: changed C-term. SEQ ID NO: 86.
From the text: as §1

Series [3] has as its target T4, OR5B12 (Homo sapiens, UniProt Q96R08).
T4 construct: expressed in transfected cells; host or cells: HEK293T cells stably expressing human RTP1S (V227I) and RTP2 (L220R)
T4 sequence (Q96R08 1-314): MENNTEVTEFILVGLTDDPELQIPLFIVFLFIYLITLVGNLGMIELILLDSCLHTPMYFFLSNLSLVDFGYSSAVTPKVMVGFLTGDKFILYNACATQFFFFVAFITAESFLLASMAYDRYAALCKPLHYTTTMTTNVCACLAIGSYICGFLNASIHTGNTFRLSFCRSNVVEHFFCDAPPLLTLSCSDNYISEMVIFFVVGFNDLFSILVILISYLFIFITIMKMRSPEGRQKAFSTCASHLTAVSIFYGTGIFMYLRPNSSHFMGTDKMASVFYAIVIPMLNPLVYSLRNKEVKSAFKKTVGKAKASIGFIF
The experiment in a line: cell-based. In kind it is cell-based. The settings on record: wild-type; for EC50: read-out: Potency EC50.
From the text: as §1

The test system of series [4] is OR10J5. Kind of series: cell-based. Format: cell-based, human.
From the text: as §1

Series [5] concerns the target T5, OR10J5 (Homo sapiens, UniProt Q8NHC4).
T5 construct: expressed in transfected cells; host or cells: HEK293T cells stably expressing human RTP1S (V227I) and RTP2 (L220R)
T5 sequence (Q8NHC4 1-309): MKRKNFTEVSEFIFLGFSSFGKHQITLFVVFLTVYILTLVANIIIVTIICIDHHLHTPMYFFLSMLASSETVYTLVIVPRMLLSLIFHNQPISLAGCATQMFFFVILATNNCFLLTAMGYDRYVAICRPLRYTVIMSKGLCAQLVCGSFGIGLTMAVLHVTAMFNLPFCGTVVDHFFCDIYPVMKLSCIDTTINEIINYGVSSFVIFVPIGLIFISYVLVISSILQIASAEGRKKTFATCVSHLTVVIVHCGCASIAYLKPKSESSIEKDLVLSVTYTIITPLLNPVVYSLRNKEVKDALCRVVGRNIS
The experiment in a line: cell-based. Conditions: for EC50: wild-type, read-out: Potency EC50. Format: cell-based.
From the text: as §1

For series [6], the target named is T6, OR10J5 (Homo sapiens, UniProt Q8NHC4).
T6 construct: expressed in transfected cells; host or cells: HEK293T cells stably expressing human RTP1S (V227I) and RTP2 (L220R)
T6 sequence (Q8NHC4 with tags, fused parts or gaps): T5 sequence (Q8NHC4 1-309) with C301K, V303L, V304L, G305K, N307K, I308C, S309C
The experiment in a line: cell-based. The settings on record: for EC50: changed C-term SEQ ID NO: 86, read-out: Potency EC50. In kind it is cell-based.
From the text: as §1

In the next series the target is T7, OR5A2 (Homo sapiens, UniProt Q8NGI9).
T7 construct: expressed in transfected cells; host or cells: HEK293T cells with stably integrated human RTP1S (V227I) and RTP2 (L220R)
T7 sequence (Q8NGI9 with tags, fused parts or gaps): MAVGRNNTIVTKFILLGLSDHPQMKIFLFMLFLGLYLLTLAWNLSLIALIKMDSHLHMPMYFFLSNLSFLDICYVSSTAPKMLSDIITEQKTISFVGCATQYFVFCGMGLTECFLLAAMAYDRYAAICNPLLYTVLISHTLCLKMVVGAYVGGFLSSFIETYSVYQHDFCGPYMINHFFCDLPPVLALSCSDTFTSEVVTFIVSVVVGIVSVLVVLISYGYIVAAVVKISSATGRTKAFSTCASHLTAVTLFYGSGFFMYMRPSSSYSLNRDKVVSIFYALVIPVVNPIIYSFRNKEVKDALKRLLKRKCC
Kind of series: Luciferase dose-response, wild-type vs changed C-terminus (SEQ ID NO: 86). In kind it is cell-based. The settings on record: OR5A2 with SEQ ID NO: 86.
From the text: as §1

On to `CCCCCCCCC(=O)O` [nonanoic acid], for which, on OR56A4, the “activation of wild-type OR56A4” value is listed as “not”.

On to `CCC(CC)C(=O)N(C)c1cccc(C)c1` [Paradisamide], for which the “activation of OR2M2” value in the series with OR2M2 was “activated”.

Regarding `C[C@]12CC[C@@H](O)C[C@@H]1CC[C@@H]1[C@@H]2CC[C@]2(C)C=CC[C@@H]12` [androstenol], the “activation of OR7D4 wild-type vs modified” value at OR7D4 is recorded as “can only activate the modified version of the receptor”.

`CCCC(C)(S)CCO` (stereo not drawn) [3-methyl-3-sulfanyl-hexanol]: the “activation of OR2M2” value in the series with OR2M2 is reported as “activated”.

In the case of `CCCCCC1C(=O)CCC1CC(=O)OC` (stereo not drawn) [Hedione], in the series with OR5B12 [1], the Comments on efficacy result is “Induction wild-type only 1.75-fold”, the Fold-improvement potency is listed as >5 and the Fold-improvement threshold is on record as >9. In addition, on OR5B12 [2], the EC50 worked out at 58.3 µM and the “Detection threshold; concentration for 2-fold induction” value amounted to 29 µM. Also, on OR5B12 [3], the “Detection threshold; concentration for 2-fold induction” value is reported as “n.i. >>( 250) µM” and the EC50 is > 250 µM.

Take `C/C(=C\CCC=O)CCCC(C)(C)O` [Mahonial, (4E)-9-hydroxy-5,9-dimethyl-4-Decenal]: in the series on OR10J5 [4], the Fold-improvement potency is 2.3 and the Fold-improvement threshold is on record as 11.5. Also, at OR10J5 [5], the “Detection threshold; concentration for 2-fold induction” value came out at 7.42 µM and the EC50 was 46 µM. Moreover, on OR10J5 [6], the “Detection threshold; concentration for 2-fold induction” value was 0.65 µM and the EC50 came out at 20 µM.

`Cc1cc(CC(C)C)ccc1CCC=O` [Nympheal, 3-(4-isobutyl-2-methylphenyl)propanal]: in the series on OR10J5 [4], the Comments on efficacy result is “Only 1.8-fold induction for WT, but 5.5-fold for changed C-terminus”; the Fold-improvement potency is given as >>6; the Fold-improvement threshold is >>6. Moreover, at OR10J5 [5], the “Detection threshold; concentration for 2-fold induction” value is listed as “n.i. (>31 µM, at cytotoxic dose)” and the EC50 was > 31 µM. At OR10J5 [6], the “Detection threshold; concentration for 2-fold induction” value worked out at 5.64 µM and the EC50 amounted to 6.2 µM.

In the case of `CCOc1cc(C=O)ccc1O` [ethyl vanillin], the “response of the modified receptor” value at OR5A2 is listed as “no response”.

In the case of `C[C@]12CCC(=O)C[C@@H]1CC[C@@H]1[C@@H]2CC[C@]2(C)C=CC[C@@H]12` [Androstenone], on OR7D4, the Comments on efficacy was 3-fold lower maximal induction for wild-type and the Fold-improvement potency stood at 66. Besides, the 50% effective concentration (EC50) at OR7D4 (changed C-term SEQ ID NO: 86) worked out at 0.13 µM. Further, on OR7D4 (wild-type), the EC50 worked out at 8.44 µM.

`C=C(C)C1CCC2=CC(=O)CC(C)C2(C)C1` (stereo not drawn) [Nootkatone, 5,6-Dimethyl-8-iso-propenylbicyclo-(4,4,0)-dec-1-en-3-one]: the “activation of OR2M2” value with OR2M2 was “activated”.

In the case of `CCCCCC1C(=O)CCC1CC(=O)OC` (stereo not drawn) [Hedione HC], in the series on OR5B12 [1], the Comments on efficacy is recorded as 4-fold lower maximal induction for wild-type, the Fold-improvement potency was determined as 3.8 and the Fold-improvement threshold was 11. Also, on OR5B12 [2], the EC50 came to 18.3 µM and the “Detection threshold; concentration for 2-fold induction” value was 8.8 µM. Besides, at OR5B12 [3], the “Detection threshold; concentration for 2-fold induction” value was 96 µM and the EC50 turned out to be 69 µM.

Consider `CCCCCCCCCC(=O)O` [decanoic acid], for which the “activation of wild-type OR56A4” value at OR56A4 was “activated at high concentration”.

Take `CC1=CCC(C(C)(C)S)CC1` (stereo not drawn) [1-p-Menthene-8-thiol]: the “activation of OR2M2” value in the series with OR2M2 is recorded as “activated”.
